Assay results published in patent US10100058B2, “Fused heterocyclic compounds as CaM kinase inhibitors” (Gilead Sciences, Inc., priority 2016, dated 2018).

Target: recombinant CaMKIIδ (Homo sapiens (Human), UniProt Q13557)
Experiment: CaMKIIδ biochemical assay (HTRF)
Conditions: 10 pM CaMKIIδ, 110 nM calmodulin, 12 μM ATP, 1 hour; read-out: CAMKIID-HTRF-384V2 (IC50 - nM)
Method: CaMKIIδ Biochemical Assay
The biochemical activity of recombinant CaMKIIδ was measured by monitoring the phosphorylation of a target peptide using Homogenous Time Resolved Fluorescence (HTRF) technology from CisBio Bioassays.

Row | Compound | IC50
1 | CC[C@@H](CNC(=O)c1cc(-c2cnn3ccc(-c4cccs4)nc23)nc(N2CC[C@H]2C(=O)NC)c1)N(CC)CC (single isomer, unassigned) [Example 356A] | 0.31 nM
2 | CC[C@H](CNC(=O)c1cc(-c2cnn3ccc(-c4cccs4)nc23)nc(N2CC[C@H]2C(=O)NC)c1)N(CC)CC (single isomer, unassigned) [Example 356B] | 3.04 nM
3 | NCC1CC(F)(F)CN1C(=O)c1ccnc(-c2cnn3ccc(-c4cccs4)nc23)c1 (stereo in doubt) [Example 78, (S)-(2-(aminomethyl)-4,4-difluoropyrrolidin-1-yl)(2-(5-(thiophen-2-yl)pyrazolo[1,5-a]pyrimidin-3-yl)pyridin-4-yl)methanone] | 9.44 nM
4 | CCN(CC)[C@@H](C)CNC(=O)c1cc(-c2cnn3ccc(-c4cccs4)nc23)nc(N2CCC(C#N)C2)c1 (stereo in doubt) [Example 313, 2-((S)-3-cyanopyrrolidin-1-yl)-N—((S)-2-(diethylamino)propyl)-6-(5-(thiophen-2-yl)pyrazolo[1,5-a]pyrimidin-3-yl)isonicotinamide] | 0.18 nM
5 | COC1CN(c2cc(C(=O)N3C4CC[C@@H]3CCNC4)cc(-c3cnn4ccc(-c5ccccc5)nc34)n2)C1 (stereo in doubt) [Example 330, (-3,9-diazabicyclo[4.2.1]nonan-9-yl)(2-(3-methoxyazetidin-1-yl)-6-(5-phenylpyrazolo[1,5-a]pyrimidin-3-yl)pyridin-4-yl)methanone] | 44.6 nM
6 | O=C(NCC12CCCN1CCC2)c1ccnc(-c2cnn3ccc(-c4cccs4)nc23)c1 [Example 3, N-((hexahydro-1H-pyrrolizin-7a-yl)methyl)-2-(5-(thiophen-2-yl)pyrazolo[1,5-a]pyrimidin-3-yl)isonicotinamide] | 5.55 nM
7 | O=C(NC[C@@H]1C[C@H](F)CN1)c1ccnc(-c2cnn3ccc(-c4cccs4)nc23)c1 [Example 5, N-(((2S,4S)-4-fluoropyrrolidin-2-yl)methyl)-2-(5-(thiophen-2-yl)pyrazolo[1,5-a]pyrimidin-3-yl)isonicotinamide] | 12.7 nM
8 | O=C(NC[C@@H]1CCN1)c1ccnc(-c2cnn3ccc(-c4cccs4)nc23)c1 [Example 7, (S)—N-(azetidin-2-ylmethyl)-2-(5-(thiophen-2-yl)pyrazolo[1,5-a]pyrimidin-3-yl)isonicotinamide] | 6.05 nM
9 | O=C(NC[C@H]1CCN1)c1ccnc(-c2cnn3ccc(-c4cccs4)nc23)c1 [Example 8, (R)—N-(azetidin-2-ylmethyl)-2-(5-(thiophen-2-yl)pyrazolo[1,5-a]pyrimidin-3-yl)isonicotinamide] | 10 nM
10 | CN(C)CCNC(=O)c1ccnc(-c2cnn3ccc(-c4cccs4)nc23)c1 [Example 9, N-(2-(dimethylamino)ethyl)-2-(5-(thiophen-2-yl)pyrazolo[1,5-a]pyrimidin-3-yl)isonicotinamide] | 26 nM
11 | CCC[C@@]1(CNC(=O)c2ccnc(-c3cnn4ccc(-c5cccs5)nc34)c2)CCCN1 [Example 10, (S)—N-((2-propylpyrrolidin-2-yl)methyl)-2-(5-(thiophen-2-yl)pyrazolo[1,5-a]pyrimidin-3-yl)isonicotinamide] | 9.8 nM
12 | CC[C@@]1(CNC(=O)c2ccnc(-c3cnn4ccc(-c5cccs5)nc34)c2)CCCN1 [Example 11, (S)—N-((2-ethylpyrrolidin-2-yl)methyl)-2-(5-(thiophen-2-yl)pyrazolo[1,5-a]pyrimidin-3-yl)isonicotinamide] | 10.7 nM
13 | C[C@@]1(CNC(=O)c2ccnc(-c3cnn4ccc(-c5cccs5)nc34)c2)CCCN1 [Example 12, (S)—N-((2-methylpyrrolidin-2-yl)methyl)-2-(5-(thiophen-2-yl)pyrazolo[1,5-a]pyrimidin-3-yl)isonicotinamide] | 14.9 nM
14 | C[C@@H](NC(=O)c1ccnc(-c2cnn3ccc(-c4cccs4)nc23)c1)[C@@H]1CCCN1 [Example 13, N—((R)-1-((S)-pyrrolidin-2-yl)ethyl)-2-(5-(thiophen-2-yl)pyrazolo[1,5-a]pyrimidin-3-yl)isonicotinamide] | 153 nM
15 | C[C@@H](CNC(=O)c1ccnc(-c2cnn3ccc(-c4cccs4)nc23)c1)NCC(F)F [Example 14, (S)—N-(2-((2,2-difluoroethyl)amino)propyl)-2-(5-(thiophen-2-yl)pyrazolo[1,5-a]pyrimidin-3-yl)isonicotinamide] | 23.8 nM
16 | CCN(CC(F)F)[C@@H](C)CNC(=O)c1ccnc(-c2cnn3ccc(-c4cccs4)nc23)c1 [Example 15, (S)—N-(2-((2,2-difluoroethyl)(ethyl)amino)propyl)-2-(5-(thiophen-2-yl)pyrazolo[1,5-a]pyrimidin-3-yl)isonicotinamide] | 8.34 nM
17 | O=C(NCC1CCCCCN1)c1ccnc(-c2cnn3ccc(-c4cccs4)nc23)c1 (centres unmarked) [Example 16, N-(azepan-2-ylmethyl)-2-(5-(thiophen-2-yl)pyrazolo[1,5-a]pyrimidin-3-yl)isonicotinamide] | 60 nM
18 | CC(C)C[C@@]1(CNC(=O)c2ccnc(-c3cnn4ccc(-c5cccs5)nc34)c2)CCCN1 [Example 17, (R)—N-((2-isobutylpyrrolidin-2-yl)methyl)-2-(5-(thiophen-2-yl)pyrazolo[1,5-a]pyrimidin-3-yl)isonicotinamide] | 7.47 nM

Row | Compound | IC50
19 | O=C(NC[C@]1(CC2CC2)CCCN1)c1ccnc(-c2cnn3ccc(-c4cccs4)nc23)c1 [Example 18, (R)—N-((2-(cyclopropylmethyl)pyrrolidin-2-yl)methyl)-2-(5-(thiophen-2-yl)pyrazolo[1,5-a]pyrimidin-3-yl)isonicotinamide] | 6.51 nM
20 | O=C(NCC1CCCCN1)c1ccnc(-c2cnn3ccc(-c4cccs4)nc23)c1 (centres unmarked) [Example 19, N-(piperidin-2-ylmethyl)-2-(5-(thiophen-2-yl)pyrazolo[1,5-a]pyrimidin-3-yl)isonicotinamide] | 89.3 nM
21 | CCN[C@@H](C)CNC(=O)c1ccnc(-c2cnn3ccc(-c4cccs4)nc23)c1 [Example 20, (S)—N-(2-(ethylamino)propyl)-2-(5-(thiophen-2-yl)pyrazolo[1,5-a]pyrimidin-3-yl)isonicotinamide] | 4.97 nM
22 | C[C@@H](CNC(=O)c1ccnc(-c2cnn3ccc(-c4cccs4)nc23)c1)NCCO [Example 21, (S)—N-(2-((2-hydroxyethyl)amino)propyl)-2-(5-(thiophen-2-yl)pyrazolo[1,5-a]pyrimidin-3-yl)isonicotinamide] | 27.8 nM
23 | C[C@H](N)CNC(=O)c1ccnc(-c2cnn3ccc(-c4cccs4)nc23)c1 [Example 22, (S)—N-(2-aminopropyl)-2-(5-(thiophen-2-yl)pyrazolo[1,5-a]pyrimidin-3-yl)isonicotinamide] | 13.9 nM
24 | CCCN[C@@H](C)CNC(=O)c1ccnc(-c2cnn3ccc(-c4cccs4)nc23)c1 [Example 23, (S)—N-(2-(propylamino)propyl)-2-(5-(thiophen-2-yl)pyrazolo[1,5-a]pyrimidin-3-yl)isonicotinamide] | 14.6 nM
25 | C[C@@H](CNC(=O)c1ccnc(-c2cnn3ccc(-c4cccs4)nc23)c1)NCCF [Example 24, (S)—N-(2-((2-fluoroethyl)amino)propyl)-2-(5-(thiophen-2-yl)pyrazolo[1,5-a]pyrimidin-3-yl)isonicotinamide] | 7.88 nM
26 | C[C@@H](CNC(=O)c1ccnc(-c2cnn3ccc(-c4cccs4)nc23)c1)NCC1CC1 [Example 26, (S)—N-(2-((cyclopropylmethyl)amino)propyl)-2-(5-(thiophen-2-yl)pyrazolo[1,5-a]pyrimidin-3-yl)isonicotinamide] | 10.7 nM
27 | C[C@@H](CNC(=O)c1ccnc(-c2cnn3ccc(-c4cccs4)nc23)c1)NCC(F)F [Example 27, (S)—N-(2-((2,2-difluoroethyl)amino)propyl)-2-(5-(thiophen-2-yl)pyrazolo[1,5-a]pyrimidin-3-yl)isonicotinamide] | 18.4 nM
28 | C[C@@H](CNC(=O)c1ccnc(-c2cnn3ccc(-c4cccs4)nc23)c1)NCC(F)(F)F [Example 28, (S)-2-(5-(thiophen-2-yl)pyrazolo[1,5-a]pyrimidin-3-yl)-N-(2-((2,2,2-trifluoroethyl)amino)propyl)isonicotinamide] | 53.4 nM
29 | CCN[C@H](CC)CNC(=O)c1ccnc(-c2cnn3ccc(-c4cccs4)nc23)c1 [Example 29, (R)—N-(2-(ethylamino)butyl)-2-(5-(thiophen-2-yl)pyrazolo[1,5-a]pyrimidin-3-yl)isonicotinamide] | 7.72 nM
30 | CCN[C@@H](CC)CNC(=O)c1ccnc(-c2cnn3ccc(-c4cccs4)nc23)c1 [Example 30, (S)—N-(2-(ethylamino)butyl)-2-(5-(thiophen-2-yl)pyrazolo[1,5-a]pyrimidin-3-yl)isonicotinamide] | 3.67 nM
31 | CCC(CNC(=O)c1ccnc(-c2cnn3ccc(-c4cccs4)nc23)c1)NC(C)C (centres unmarked) [Example 31, N-(2-(isopropylamino)butyl)-2-(5-(thiophen-2-yl)pyrazolo[1,5-a]pyrimidin-3-yl)isonicotinamide] | 12.1 nM
32 | CC(C)N[C@@H](C)CNC(=O)c1ccnc(-c2cnn3ccc(-c4cccs4)nc23)c1 [Example 32, (S)—N-(2-(isopropylamino)propyl)-2-(5-(thiophen-2-yl)pyrazolo[1,5-a]pyrimidin-3-yl)isonicotinamide] | 18 nM
33 | CCN[C@H](C)CNC(=O)c1ccnc(-c2cnn3ccc(-c4cccs4)nc23)c1 [Example 33, (R)—N-(2-(ethylamino)propyl)-2-(5-(thiophen-2-yl)pyrazolo[1,5-a]pyrimidin-3-yl)isonicotinamide] | 8.44 nM
34 | O=C(NC[C@@H]1CCCN1)c1ccnc(-c2cnn3ccc(-c4cccs4)nc23)c1 [Example 34, (S)—N-(pyrrolidin-2-ylmethyl)-2-(5-(thiophen-2-yl)pyrazolo[1,5-a]pyrimidin-3-yl)isonicotinamide] | 12.4 nM
35 | CN1CCC[C@H]1CNC(=O)c1ccnc(-c2cnn3ccc(-c4cccs4)nc23)c1 [Example 35, (S)—N-((1-methylpyrrolidin-2-yl)methyl)-2-(5-(thiophen-2-yl)pyrazolo[1,5-a]pyrimidin-3-yl)isonicotinamide] | 95.5 nM
